Legend:
UACC-257 = assay: NCI single dose screen, UACC-257; assay type: cell-based; settings: Homo sapiens; UACC-257, melanoma; single dose 10^−5 M; read-out: growth inhibition percentage
Description: (§1) Screening of the anticancer activity of the newly synthesised compounds (6a, 6c, 6d, 6e, 6j, 6l, 6m, 6n, 6o, and 6p) was performed by the US National Cancer Institute (NCI) using 60 different human tumour cell lines in accordance with standard procedures formerly reported.
(§2) In vitro anticancer screening was carried out for the selected compounds at a single dose (10^−5 M) against 60 different human tumour cell lines of nine different cancer cell types: leukaemia, lung, colon, CNS, melanoma, ovarian, renal, prostate, and breast cancers.

HT29 = assay: NCI single dose screen, HT29; assay type: cell-based; settings: Homo sapiens, HT-29; HT29, colon cancer; single dose 10^−5 M; read-out: growth inhibition percentage
Description: as §1, §2

SNB-19 = assay: NCI single dose screen, SNB-19; assay type: cell-based; settings: Homo sapiens; SNB-19, CNS cancer; single dose 10^−5 M; read-out: growth inhibition percentage
Description: as §1, §2

[1] = molecular target: T1, double mutant EGFR^L858R/T790M (Homo sapiens, UniProt P00533, L858R/T790M); assay: In vitro EGFR inhibition assay, double mutant; assay type: biochemical; settings: for IC50: double mutant EGFR; for Selectivity (SI): ratio of the IC50 values EGFR^WT/EGFR^L858R/T790M
T1 construct: purchased AssayQuant Technologies, Inc. (Marlboro, MA, USA)

K-562 = assay: NCI single dose screen, K-562; assay type: cell-based; settings: Homo sapiens, K562; K-562, leukaemia; single dose 10^−5 M; read-out: growth inhibition percentage
Description: as §1, §2

TK-10 = assay: NCI single dose screen, TK-10; assay type: cell-based; settings: Homo sapiens; TK-10, renal cancer; single dose 10^−5 M; read-out: growth inhibition percentage
Description: as §1, §2

HS 578T = assay: NCI single dose screen, HS 578T; assay type: cell-based; settings: Homo sapiens, breast cancer, single dose 10^−5 M, read-out: growth inhibition percentage
Description: as §1, §2

SR = assay: NCI single dose screen, SR; assay type: cell-based; settings: Homo sapiens, leukaemia, single dose 10^−5 M, read-out: growth inhibition percentage
Description: as §1, §2

SNB-75 = assay: NCI single dose screen, SNB-75; assay type: cell-based; settings: Homo sapiens; SNB-75, CNS cancer; single dose 10^−5 M; read-out: growth inhibition percentage
Description: as §1, §2

ACHN = assay: NCI single dose screen, ACHN; assay type: cell-based; settings: Homo sapiens, renal cancer, single dose 10^−5 M, read-out: growth inhibition percentage
Description: as §1, §2

OVCAR-3 = assay: NCI single dose screen, OVCAR-3; assay type: cell-based; settings: Homo sapiens; OVCAR-3, ovarian cancer; single dose 10^−5 M; read-out: growth inhibition percentage
Description: as §1, §2

DU-145 = assay: NCI single dose screen, DU-145; assay type: cell-based; settings: Homo sapiens; DU-145, prostate cancer; single dose 10^−5 M; read-out: growth inhibition percentage
Description: as §1, §2

CAKI-1 = assay: NCI single dose screen, CAKI-1; assay type: cell-based; settings: Homo sapiens; CAKI-1, renal cancer; single dose 10^−5 M; read-out: growth inhibition percentage
Description: as §1, §2

MALME-3M = assay: NCI single dose screen, MALME-3M; assay type: cell-based; settings: Homo sapiens, melanoma, single dose 10^−5 M, read-out: growth inhibition percentage
Description: as §1, §2

BT-549 = assay: NCI single dose screen, BT-549; assay type: cell-based; settings: Homo sapiens; BT-549, breast cancer; single dose 10^−5 M; read-out: growth inhibition percentage
Description: as §1, §2

M14 = assay: NCI single dose screen, M14; assay type: cell-based; settings: Homo sapiens; M14, melanoma; single dose 10^−5 M; read-out: growth inhibition percentage
Description: as §1, §2

NCI/ADR-RES = assay: NCI single dose screen, NCI/ADR-RES; assay type: cell-based; settings: Homo sapiens, ovarian cancer, single dose 10^−5 M, read-out: growth inhibition percentage
Description: as §1, §2

wild-type EGFR = molecular target: T2, wild-type EGFR (Homo sapiens, UniProt P00533); assay: In vitro EGFR inhibition assay, wild type; assay type: biochemical; settings: read-out: EGFR^WT IC50
T2 construct: purchased AssayQuant Technologies, Inc. (Marlboro, MA, USA)

NCI-H226 = assay: NCI single dose screen, NCI-H226; assay type: cell-based; settings: Homo sapiens; NCI-H226, non-small cell lung cancer; single dose 10^−5 M; read-out: growth inhibition percentage
Description: as §1, §2

MOLT-4 = assay: NCI single dose screen, MOLT-4; assay type: cell-based; settings: Homo sapiens; MOLT-4, leukaemia; single dose 10^−5 M; read-out: growth inhibition percentage
Description: as §1, §2

HL-60(TB) = assay: NCI single dose screen, HL-60(TB); assay type: cell-based; settings: Homo sapiens, leukaemia, single dose 10^−5 M, read-out: growth inhibition percentage
Description: as §1, §2

[2] = tested on: LPS-induced IL-6 production in RAW 264.7 cells; assay: IL-6 production in LPS-activated RAW 264.7 cells (ELISA); assay type: cell-based; settings: LPS-activated RAW 264.7 cells treated with 25 µM of the compound
SW-620 = assay: NCI single dose screen, SW-620; assay type: cell-based; settings: Homo sapiens; SW-620, colon cancer; single dose 10^−5 M; read-out: growth inhibition percentage
Description: as §1, §2

SK-MEL-28 = assay: NCI single dose screen, SK-MEL-28; assay type: cell-based; settings: Homo sapiens; SK-MEL-28, melanoma; single dose 10^−5 M; read-out: growth inhibition percentage
Description: as §1, §2

[3] = tested on: LPS-induced TNF-α production in RAW 264.7 cells; assay: TNF-α production in LPS-activated RAW 264.7 cells (ELISA); assay type: cell-based; settings: LPS-activated RAW 264.7 cells treated with 25 µM of the compound
SK-MEL-5 = assay: NCI single dose screen, SK-MEL-5; assay type: cell-based; settings: Homo sapiens; SK-MEL-5, melanoma; single dose 10^−5 M; read-out: growth inhibition percentage
Description: as §1, §2

HCC-2998 = assay: NCI single dose screen, HCC-2998; assay type: cell-based; settings: Homo sapiens; HCC-2998, colon cancer; single dose 10^−5 M; read-out: growth inhibition percentage
Description: as §1, §2

OVCAR-4 = assay: NCI single dose screen, OVCAR-4; assay type: cell-based; settings: Homo sapiens; OVCAR-4, ovarian cancer; single dose 10^−5 M; read-out: growth inhibition percentage
Description: as §1, §2

MDA-MB-231/ATCC = assay: NCI single dose screen, MDA-MB-231/ATCC; assay type: cell-based; settings: Homo sapiens, breast cancer, single dose 10^−5 M, read-out: growth inhibition percentage
Description: as §1, §2

SK-OV-3 = assay: NCI single dose screen, SK-OV-3; assay type: cell-based; settings: Homo sapiens; SK-OV-3, ovarian cancer; single dose 10^−5 M; read-out: growth inhibition percentage
Description: as §1, §2

RPMI-8226 = assay: NCI single dose screen, RPMI-8226; assay type: cell-based; settings: Homo sapiens; RPMI-8226, leukaemia; single dose 10^−5 M; read-out: growth inhibition percentage
Description: as §1, §2

T2 sequence (P00533 25-1210): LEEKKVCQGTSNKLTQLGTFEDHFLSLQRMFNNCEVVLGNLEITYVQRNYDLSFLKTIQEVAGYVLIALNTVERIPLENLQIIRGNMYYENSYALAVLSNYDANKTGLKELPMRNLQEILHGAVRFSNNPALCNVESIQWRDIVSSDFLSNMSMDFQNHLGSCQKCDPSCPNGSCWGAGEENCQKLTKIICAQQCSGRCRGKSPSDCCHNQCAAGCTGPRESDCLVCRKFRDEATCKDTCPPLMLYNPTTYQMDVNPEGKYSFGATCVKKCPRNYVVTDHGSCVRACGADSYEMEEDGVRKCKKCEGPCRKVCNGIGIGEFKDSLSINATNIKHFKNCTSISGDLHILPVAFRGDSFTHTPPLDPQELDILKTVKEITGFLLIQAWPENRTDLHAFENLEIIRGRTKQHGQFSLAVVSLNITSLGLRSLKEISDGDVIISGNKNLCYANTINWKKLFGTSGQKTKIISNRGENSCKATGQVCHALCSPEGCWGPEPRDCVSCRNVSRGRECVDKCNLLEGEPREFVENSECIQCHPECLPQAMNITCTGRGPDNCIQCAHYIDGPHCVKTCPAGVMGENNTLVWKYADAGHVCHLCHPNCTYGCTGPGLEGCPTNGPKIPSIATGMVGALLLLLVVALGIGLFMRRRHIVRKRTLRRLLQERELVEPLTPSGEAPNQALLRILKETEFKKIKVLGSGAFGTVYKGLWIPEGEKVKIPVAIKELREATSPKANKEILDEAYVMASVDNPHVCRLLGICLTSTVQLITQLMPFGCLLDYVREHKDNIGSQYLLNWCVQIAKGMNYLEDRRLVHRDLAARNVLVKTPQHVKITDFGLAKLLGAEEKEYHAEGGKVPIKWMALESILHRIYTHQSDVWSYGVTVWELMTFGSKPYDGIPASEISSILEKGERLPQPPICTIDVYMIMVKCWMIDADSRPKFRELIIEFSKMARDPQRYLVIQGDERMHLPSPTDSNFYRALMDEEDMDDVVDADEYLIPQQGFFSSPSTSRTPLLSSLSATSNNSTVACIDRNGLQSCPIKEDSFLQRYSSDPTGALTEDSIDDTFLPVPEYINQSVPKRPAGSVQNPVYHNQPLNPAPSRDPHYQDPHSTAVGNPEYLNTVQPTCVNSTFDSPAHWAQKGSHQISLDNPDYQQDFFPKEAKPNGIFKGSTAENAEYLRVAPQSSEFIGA
T1 sequence (P00533 25-1210 T790M/L858R): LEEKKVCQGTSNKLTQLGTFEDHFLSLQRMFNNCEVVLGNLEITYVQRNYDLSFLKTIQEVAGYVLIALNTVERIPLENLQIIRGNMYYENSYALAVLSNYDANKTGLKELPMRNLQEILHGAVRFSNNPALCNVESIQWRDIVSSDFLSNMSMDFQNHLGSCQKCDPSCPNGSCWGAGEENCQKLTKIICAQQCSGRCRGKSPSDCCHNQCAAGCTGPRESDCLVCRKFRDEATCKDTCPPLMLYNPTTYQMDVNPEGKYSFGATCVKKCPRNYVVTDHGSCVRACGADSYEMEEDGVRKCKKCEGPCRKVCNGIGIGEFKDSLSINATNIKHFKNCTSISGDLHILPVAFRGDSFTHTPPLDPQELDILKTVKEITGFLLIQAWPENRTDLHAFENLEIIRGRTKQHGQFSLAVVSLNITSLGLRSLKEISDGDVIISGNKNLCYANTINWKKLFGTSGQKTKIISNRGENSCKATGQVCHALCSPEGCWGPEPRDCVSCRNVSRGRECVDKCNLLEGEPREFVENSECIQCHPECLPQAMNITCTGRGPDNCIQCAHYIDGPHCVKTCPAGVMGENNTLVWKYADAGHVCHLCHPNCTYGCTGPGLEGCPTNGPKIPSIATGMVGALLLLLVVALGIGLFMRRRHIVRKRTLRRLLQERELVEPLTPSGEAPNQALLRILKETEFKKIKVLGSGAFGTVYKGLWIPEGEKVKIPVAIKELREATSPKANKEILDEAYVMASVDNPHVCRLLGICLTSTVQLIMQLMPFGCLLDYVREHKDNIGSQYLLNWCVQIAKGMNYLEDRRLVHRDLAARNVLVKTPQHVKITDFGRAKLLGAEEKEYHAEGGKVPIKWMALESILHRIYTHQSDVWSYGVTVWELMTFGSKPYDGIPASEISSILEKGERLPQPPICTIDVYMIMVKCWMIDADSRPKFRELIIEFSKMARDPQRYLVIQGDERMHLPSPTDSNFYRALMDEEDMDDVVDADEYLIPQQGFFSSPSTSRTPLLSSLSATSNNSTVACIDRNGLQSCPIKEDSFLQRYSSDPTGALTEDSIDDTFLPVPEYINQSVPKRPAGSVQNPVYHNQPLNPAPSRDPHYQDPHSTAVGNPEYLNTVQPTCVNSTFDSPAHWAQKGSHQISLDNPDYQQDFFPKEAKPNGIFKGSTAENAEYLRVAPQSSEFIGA

Structure (SMILES)	inhibition at 10 µM (UACC-257) [%]	inhibition at 10 µM (HT29) [%]	inhibition at 10 µM (SNB-19) [%]	IC50 [1] [µM]	inhibition at 10 µM (K-562) [%]	inhibition at 10 µM (TK-10) [%]	inhibition at 10 µM (HS 578T) [%]	inhibition at 10 µM (SR) [%]	inhibition at 10 µM (SNB-75) [%]	inhibition at 10 µM (ACHN) [%]	inhibition at 10 µM (OVCAR-3) [%]	inhibition at 10 µM (DU-145) [%]	inhibition at 10 µM (CAKI-1) [%]	inhibition at 10 µM (MALME-3M) [%]	inhibition at 10 µM (BT-549) [%]	inhibition at 10 µM (M14) [%]	inhibition at 10 µM (NCI/ADR-RES) [%]	IC50 (wild-type EGFR) [µM]	inhibition at 10 µM (NCI-H226) [%]	inhibition at 10 µM (MOLT-4) [%]	also measured
CN1c2ccccc2C(=O)N(NC(=O)Nc2ccccc2)C1c1ccc([N+](=O)[O-])cc1 (centres unmarked) [Compound 6e, 1-(1-Methyl-2-(4-nitrophenyl)-4-oxo-1,4-dihydroquinazolin-3(2H)-yl)-3-phenylurea]	< 10	< 10	< 10	5.48 ± 1.33	< 10	< 10	< 10	< 10	< 10	< 10	< 10	< 10	< 10	< 10	67.1	67.2	< 10	48.7 ± 3.47	< 10	< 10	Selectivity (SI) [1]: 8.9; inhibition at 10 µM (HL-60(TB)): < 10%; IL-6 concentration [2]: 198.8 ± 6.08 pg/mL; inhibition at 10 µM (SW-620): < 10%; inhibition at 10 µM (SK-MEL-28): < 10%; TNF-α concentration [3]: 1929.00 ± 53.88 pg/mL; inhibition at 10 µM (SK-MEL-5): < 10%; inhibition at 10 µM (HCC-2998): < 10%; inhibition at 10 µM (OVCAR-4): < 10%; inhibition at 10 µM (MDA-MB-231/ATCC): < 10%; inhibition at 10 µM (SK-OV-3): < 10%; inhibition at 10 µM (RPMI-8226): < 10%
CN1c2ccccc2C(=O)N(NC(=O)Nc2ccc(F)cc2)C1c1ccccc1 (centres unmarked) [Compound 6m, 1-(4-Fluorophenyl)-3-(1-methyl-4-oxo-2-phenyl-1,4-dihydroquinazolin-3(2H)-yl)urea]	< 10	< 10	< 10	4.07 ± 3.7	< 10	< 10	< 10	< 10	< 10	< 10	20.5	< 10	< 10	10.8	< 10	18.9	16.8	> 100	< 10	23.5	inhibition at 10 µM (HL-60(TB)): < 10%; IL-6 concentration [2]: 290.7 ± 5.5 pg/mL; inhibition at 10 µM (SW-620): < 10%; inhibition at 10 µM (SK-MEL-28): < 10%; TNF-α concentration [3]: 935.60 ± 3.85 pg/mL; inhibition at 10 µM (SK-MEL-5): 15.9%; inhibition at 10 µM (HCC-2998): < 10%; inhibition at 10 µM (OVCAR-4): 10.8%; inhibition at 10 µM (MDA-MB-231/ATCC): 23%; inhibition at 10 µM (SK-OV-3): < 10%; inhibition at 10 µM (RPMI-8226): 16.1%
CN1c2ccccc2C(=O)N(NC(=O)Nc2ccc(F)cc2)C1c1ccc(F)cc1 (centres unmarked) [Compound 6n, 1-(4-Fluorophenyl)-3-(2–(4-fluorophenyl)-1-methyl-4-oxo-1,4-dihydroquinazolin-3(2H)-yl)urea]	< 10	< 10	< 10	13.5 ± 2.22	22.1	< 10	19.7	14.4	28.1	12.6	41.9	< 10	25.1	17.6	< 10	23.2	23.2	> 100	21	43.1	Selectivity (SI) [1]: >7.4; inhibition at 10 µM (HL-60(TB)): < 10%; IL-6 concentration [2]: 535.3 ± 15.25 pg/mL; inhibition at 10 µM (SW-620): < 10%; inhibition at 10 µM (SK-MEL-28): < 10%; TNF-α concentration [3]: 1981.00 ± 209.9 pg/mL; inhibition at 10 µM (SK-MEL-5): 20.3%; inhibition at 10 µM (HCC-2998): < 10%; inhibition at 10 µM (OVCAR-4): 29.7%; inhibition at 10 µM (MDA-MB-231/ATCC): 29.8%; inhibition at 10 µM (SK-OV-3): 22.9%; inhibition at 10 µM (RPMI-8226): 33.1%

Reference: article PMC10114980, “Triple targeting of mutant EGFR^L858R/T790M, COX-2, and 15-LOX: design and synthesis of novel quinazolinone tethered phenyl urea derivatives for anti-inflammatory and anticancer evaluation” (Journal of Enzyme Inhibition and Medicinal Chemistry, 2023)
